Patent publication US20230257372A1 (CHONG KUN DANG PHARMACEUTICAL CORP., priority 2020, published 2023)
Like-named read-outs stand apart in the source and are kept apart here.

Columns and labels:
human recombinant HDAC6 = molecular target: T1, human recombinant HDAC6 (Homo sapiens, UniProt Q9UBN7); assay: HDAC6 enzyme activity inhibition (HDAC Fluorimetric Drug Discovery Kit); type: biochemical
T1 construct: purchased Calbiochem Inc. 382180
T1 sequence (Q9UBN7 1-1215): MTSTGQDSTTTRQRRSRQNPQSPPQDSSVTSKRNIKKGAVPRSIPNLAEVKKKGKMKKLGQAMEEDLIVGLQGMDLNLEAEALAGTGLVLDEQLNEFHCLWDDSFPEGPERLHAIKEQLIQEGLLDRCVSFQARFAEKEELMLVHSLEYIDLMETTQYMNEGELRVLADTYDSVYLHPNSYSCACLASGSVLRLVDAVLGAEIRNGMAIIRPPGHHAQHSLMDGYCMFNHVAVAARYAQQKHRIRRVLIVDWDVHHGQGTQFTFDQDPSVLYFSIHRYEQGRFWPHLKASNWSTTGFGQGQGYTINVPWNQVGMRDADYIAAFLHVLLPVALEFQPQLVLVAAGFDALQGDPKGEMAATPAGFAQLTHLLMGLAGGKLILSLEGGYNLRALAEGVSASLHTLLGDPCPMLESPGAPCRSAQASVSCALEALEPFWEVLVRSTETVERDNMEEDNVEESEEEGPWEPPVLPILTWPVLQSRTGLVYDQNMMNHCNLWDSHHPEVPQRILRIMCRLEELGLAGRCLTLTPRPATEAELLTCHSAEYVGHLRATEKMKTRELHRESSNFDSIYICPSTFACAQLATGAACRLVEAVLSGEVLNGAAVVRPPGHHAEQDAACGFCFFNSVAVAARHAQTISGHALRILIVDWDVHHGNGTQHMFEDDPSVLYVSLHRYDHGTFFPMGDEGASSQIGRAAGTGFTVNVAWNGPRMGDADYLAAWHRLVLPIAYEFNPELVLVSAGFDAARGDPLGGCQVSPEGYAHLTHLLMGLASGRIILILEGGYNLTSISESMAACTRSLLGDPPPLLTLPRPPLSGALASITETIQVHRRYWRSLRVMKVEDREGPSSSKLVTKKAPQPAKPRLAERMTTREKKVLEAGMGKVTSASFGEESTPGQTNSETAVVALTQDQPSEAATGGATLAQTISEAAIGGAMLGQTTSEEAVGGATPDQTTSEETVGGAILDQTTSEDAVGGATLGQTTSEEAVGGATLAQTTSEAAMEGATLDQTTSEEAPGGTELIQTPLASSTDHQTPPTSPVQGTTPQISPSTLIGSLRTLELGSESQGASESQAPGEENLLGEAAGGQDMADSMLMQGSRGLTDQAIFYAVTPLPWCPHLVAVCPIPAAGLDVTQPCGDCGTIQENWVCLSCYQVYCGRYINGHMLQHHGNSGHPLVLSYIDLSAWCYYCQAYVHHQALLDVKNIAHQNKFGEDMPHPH
Method in brief: (§1)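 Fluorimetric deacetylase read-out. 5-fold compound dilutions; […] enzyme, 10 μM substrate; 30° C, 60 min; developer 30 min.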

human recombinant HDAC1 = molecular target: T2, human recombinant HDAC1 (Homo sapiens, UniProt Q13547); assay: HDAC1 enzyme activity inhibition (HDAC Fluorimetric Drug Discovery Kit); type: biochemical; conditions: read-out: HDAC1
T2 construct: purchased Enzo Life Science, Inc. BML-SE456
Method in brief: as §1

[1] = human recombinant HDAC6, IC50 calculated with GraphPad Prism
[2] = human recombinant HDAC1, IC50 calculated with GraphPad Prism
[3] = human recombinant HDAC6, same protocol as HDAC1
[4] = human recombinant HDAC1, Fluor de Lys substrate, 30° C. 60 minutes

T2 sequence (Q13547 whole entry): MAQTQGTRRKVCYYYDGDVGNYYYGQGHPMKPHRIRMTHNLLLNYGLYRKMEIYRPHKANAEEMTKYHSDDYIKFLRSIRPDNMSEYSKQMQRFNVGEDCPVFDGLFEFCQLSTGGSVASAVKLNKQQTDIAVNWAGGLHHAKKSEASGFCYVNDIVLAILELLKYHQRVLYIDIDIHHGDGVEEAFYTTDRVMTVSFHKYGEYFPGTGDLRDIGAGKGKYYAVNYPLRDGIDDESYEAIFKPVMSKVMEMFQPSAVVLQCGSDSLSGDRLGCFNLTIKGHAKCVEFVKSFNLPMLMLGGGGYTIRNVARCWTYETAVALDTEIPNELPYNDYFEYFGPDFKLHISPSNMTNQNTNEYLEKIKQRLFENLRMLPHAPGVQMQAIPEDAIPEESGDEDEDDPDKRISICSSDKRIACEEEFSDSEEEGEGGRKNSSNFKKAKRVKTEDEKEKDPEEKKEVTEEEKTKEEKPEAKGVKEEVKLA

HDAC6 selectivity (fold) (human recombinant HDAC6; HDAC1 IC50 / HDAC6 IC50)	IC50 (human recombinant HDAC6; [1]) [µM]	IC50 (human recombinant HDAC1; [2]) [µM]	HDAC6 selectivity (fold) (human recombinant HDAC6; HDAC6 over HDAC1)	IC50 (human recombinant HDAC6; [3]) [µM]	IC50 (human recombinant HDAC1; [4]) [µM]	Compound
3105	0.0161	> 50	–	–	–	O=c1ccc(-c2cn(Cc3ccc(-c4nnc(C(F)F)o4)cn3)nn2)c[nH]1 [Compound 3845, 5-(1-((5-(5-(difluoromethyl)-1,3,4-oxadiazol-2-yl)pyridin-2-yl)methyl)-1H-1,2,3-triazol-4-yl)pyridin-2(1H)-one]
–	–	–	856	0.0584	> 50	Fc1cc(-c2cn(Cc3ncc(-c4nnc(C(F)F)o4)cc3F)nn2)ccc1CN1CCCC1 [Compound 18948, 2-(difluoromethyl)-5-(5-fluoro-6-((4-(3-fluoro-4-(pyrrolidin-1-ylmethyl)phenyl)-1H-1,2,3-triazol-1-yl)methyl)pyridin-3-yl)-1,3,4-oxadiazole]
–	–	–	541	0.0924	> 50	Fc1cc(-c2nnc(C(F)F)o2)cnc1Cn1cc(-c2cc(Cl)cc(CN3CCCC3)c2)nn1 [Compound 19092, 2-(6-((4-(3-chloro-5-(pyrrolidin-1-ylmethyl)phenyl)-1H-1,2,3-triazol-1-yl)methyl)-5-fluoropyridin-3-yl)-5-(difluoromethyl)-1,3,4-oxadiazole]
434	0.111	> 50	–	–	–	CC(C)N1C[C@@H]2C[C@H]1CN2c1cccc(-c2cn(Cc3ccc(-c4nnc(C(F)F)o4)cc3)nn2)c1 [Compound 4321, 2-(difluoromethyl)-5-(4-((4-(3-((1S, 4S)-5-isopropyl-2,5-diazabicyclo[2.2.1]heptan-2-yl)phenyl)-1H-1,2,3-triazol-1-yl)methyl)phenyl)-1,3,4-oxadiazole]
–	–	–	435	0.115	> 50	Fc1cc(-c2nnc(C(F)F)o2)cnc1Cn1cc(-c2cc(Cl)cc(CN3CCC3)c2)nn1 [Compound 19091, 2-(6-((4-(3(-azetidin-1-ylmethyl)-5-chlorophenyl)-1H-1,2,3-triazol-1-yl)methyl)-5-fluoropyridin-3-yl)-5-(difluoromethyl)-1,3,4-oxadiazole]
–	–	–	809	0.0618	> 50	Cc1cnc(-c2cn(Cc3ccc(-c4nnc(C(F)F)o4)cc3F)nn2)s1 [Compound 17857, 2-(difluoromethyl)-5-(3-fluoro-4-((4-(5-methylthiazol-2-yl)-1H-1,2,3-triazol-1-yl)methyl)phenyl)-1,3,4-oxadiazole]
–	–	–	1377	0.0363	> 50	Fc1cc(-c2nnc(C(F)F)o2)ccc1Cn1cc(-c2cccc(N3CCN(C4COC4)CC3)n2)nn1 [Compound 17365, 2-(difluoromethyl)-5-(3-fluoro-4-((4-(6-(4-(oxetan-3-yl)piperazin-1-yl)pyridin-2-yl)-1H-1,2,3-triazol-1-yl)methyl)phenyl)-1,3,4-oxadiazole]
922	0.0542	> 50	–	–	–	FC(F)c1nnc(-c2ccc(Cn3cc(-c4ccco4)nn3)nc2)o1 [Compound 3861, 2-(difluoromethyl)-5-(6-((4-(furan-2-yl)-1H-1,2,3-triazol-1-yl)methyl)pyridin-3-yl)-1,3,4-oxadiazole]
1269	0.0394	> 50	–	–	–	CC(C)N1CCN(Cc2ccc(-c3cn(Cc4ccc(-c5nnc(C(F)F)o5)cc4F)nn3)cc2)CC1 [Compound 4475, 2-(difluoromethyl)-5-(3-fluoro-4-((4-(4-((4-isopropylpiperazin-1-yl)methyl)phenyl)-1H-1,2,3-triazol-1-yl)methyl)phenyl)-1,3,4-oxadiazole]
1577	0.0317	> 50	–	–	–	FC(F)c1nnc(-c2ccc(Cn3cc(-c4ccc(-n5cncn5)cc4)nn3)nc2)o1 [Compound 4285, 2-(6-((4-(4-(1H-1,2,4-triazol-1-yl)phenyl)-1H-1,2,3-triazol-1-yl)methyl)pyridin-3-yl)-5-(difluoromethyl)-1,3,4-oxadiazole]
